Consider 8 compounds from patent publication US6440997B2, “−E-2-(3,4-dichlorocinnamyl)-1-cyclopropylmethylpiperidine, and its antidiarrhoeal use” (Warner-Lambert Company, priority 1997, dated 2002).

pIC50: −log10 of the molar value.

Data set [1] deals with diarrhoea induced by Salmonella lipopolysaccharide (LPS). Description: Diarrhoea induced by Salmonella lipopolysaccharide (LPS) in mice. The note with it: for ED50: Salmonella, in Mus musculus, read-out: Inhibitory activity ED50, Salmonella LPS diarrhoea; for Inhibition of diarrhoea (%): Salmonella LPS.
The target in data set [2] is sigma receptors (Rattus norvegicus, UniProt Q9R0C9). Description: Affinity for sigma receptors: displacement of (+)[3H]-SKF 10,047 from rat brain membrane preparation. The note with it: σ affinity: IC50, displacement of (+)[3H]-SKF 10,047, rat brain membrane preparation.
Data set [3] deals with diarrhoea induced by the thermostable toxin of E. coli. As to the kind of experiment: Diarrhoea induced by the thermostable toxin of E. coli in mice. In kind it is in vivo. The note with it: Escherichia coli, po, p.o. 1 h before toxin 600 U/mouse p.o., faecal water at 120 min, read-out: Inhibitory activity ED50, E. coli toxin diarrhoea. The procedure: (§1) b)—diarrhoea induced by the thermostable toxin of E. coli: Nourished male NMRI mice (30-35 g) are weighed and placed in individual cages previously covered with white paper allowing the viewing of the faecal matter voided. The faeces are recovered as soon as voided and are brought together, by periods of 30 min, for 120 min. The faeces thus brought together are weighed before (fresh weight) and after (dry weight) drying at 120° C. for 24 h. The quantity of water present in the faeces is calculated as the difference (fresh weight—dry weight). The thermostable toxin of Escherichia coli (Sigma, E5763) is administered by the oral route at time zero at a dose of 600 U/mouse. The animals of the control batch receive, at time zero, an oral administration of saline. The administration of the test products is carried out by the oral route 1 h before the administration of the toxins.

Data set [4] has as its system inflammatory diarrhoea caused by PGE2. The settings on record: cited from earlier work.
The test system of data set [5] is diarrhoea induced by the A and B toxins of C. difficile. As to the kind of experiment: Diarrhoea induced by the A and B toxins of C. difficile in mice. It counts as in vivo. The note with it: Clostridioides difficile, po, p.o. 1 h before A and B toxins 6 ng/mouse p.o., faecal water at 120 min, read-out: Inhibitory activity ED50, C. difficile toxins diarrhoea. The protocol:
as §1
c)—diarrhoea induced by the A and B toxins of C. difficile: the experimental protocol, the calculation and the expression of the results are identical to those described above. The A and B toxins of C. difficile are administered by the oral route at time zero at a dose of 6 ng/mouse.

Data set [6] can be described thus: Toxicity study in mice by the oral route. In kind it is in vivo. The protocol: In animals, the toxicity study was carried out in mice by the oral route. No mortality was noted up to the strongest dose studied, namely 300 mg/kg. No toxic symptoms were evident at doses lower than 100 mg/kg. Starting from this dose, symptoms were observed such as respiratory depression, trembling, convulsions, a state of prostration or of lethargy which were reversible in a lapse of time of 24 hours after treatment.

For data set [7], the system named is intestinal secretion induced by cholera toxin. As to the kind of experiment: animal or person. It counts as in vivo, rats. The settings on record: for ED50: Rattus norvegicus, read-out: Inhibition of intestinal secretion induced by cholera toxin: ED50.
Data set [8] has as its system transit. Description: Effect on the transit. In kind it is in vivo. The settings on record: oral route, mice.

As a reminder, the ED50 is the dose at which the effect has come halfway, by size or by number of responders. Broadly, the pIC50 is the negative decadic logarithm of the IC50, by convention in mol/L. A lower pIC50 goes with a large IC50.

Chain of sigma receptors (Q9R0C9 whole entry): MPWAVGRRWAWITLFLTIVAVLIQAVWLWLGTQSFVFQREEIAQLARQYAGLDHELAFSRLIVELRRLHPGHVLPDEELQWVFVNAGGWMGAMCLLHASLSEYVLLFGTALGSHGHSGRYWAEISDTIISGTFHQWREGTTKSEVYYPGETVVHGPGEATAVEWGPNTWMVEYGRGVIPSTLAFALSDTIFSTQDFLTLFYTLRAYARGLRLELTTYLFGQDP

On to `C(=C\c1ccccc1)/CC1CCCN1CC1CC1` (single isomer, unassigned; (-)) [Ex. 1.3, (−)E-2-cinnamyl-1-cyclopropylmethylpyrrolidine], for which the ED50 in data set [1] was found to be 0.002 mg/kg. The “Inhibition of diarrhoea (%)” value in data set [1] (dose 0.003 mg/kg p.o., mice, 0.003 mg/kg) is on record as 63.8%; in data set [1] (dose 0.01 mg/kg p.o., mice), 78.8%; in data set [1] (dose 0.03 mg/kg p.o., mice, 0.03 mg/kg), 46.7%.

As for `Clc1ccc(/C=C/CC2CCCCN2CC2CC2)cc1Cl` (single isomer, unassigned; (+)) [(+)E-2-(3,4-dichlorocinnamyl)-1-cyclopropylmethylpiperidine], in data set [2], the pIC50 is 7.66.

`CCC(C/C=C/c1ccccc1)(c1ccccc1)N(C)CC1CC1` (single isomer, unassigned; (+)) [igmesine, (+)-N-cyclopropylmethyl-N-methyldiphenyl-1,4-ethyl-1-buten-3-yl-1-amine]: the figures for the ED50 in data set [3], in data set [1] and in data set [5] were 1.72 mg/kg, 0.42 mg/kg and 1.45 mg/kg, respectively. Moreover, in data set [4] (30 mg/kg i.p., co-administered with PGE2, mice), the “Delay of the appearance of the diarrhoea” value is “approximately 15 min”. Also, the “Inhibitory effect on PGE2 diarrhoea by the oral route” value in data set [4] (60 mg/kg oral route, mice) is “zero”.

As to `Clc1ccc(/C=C/CC2CCCCN2CC2CC2)cc1Cl` (single isomer, unassigned; (-)) [eutomer (I), (−)E-2-(3,4-dichlorocinnamyl)-1-cyclopropylmethylpiperidine], the 50% effective dose (ED50) in data set [3] is 0.019 mg/kg; in data set [7], 0.038 mg/kg; in data set [1] it was 0.0056 mg/kg; in data set [5], less than 0.001 mg/kg. Moreover, the “Dose up to which no mortality was noted (strongest dose studied)” value in data set [6] is recorded as no less than 300 mg/kg. Moreover, the “Dose from which toxic symptoms were observed (none at lower doses)” value in data set [6] (respiratory depression, trembling, convulsions, prostration or lethargy, reversible in 24 hours) is recorded as no less than 100 mg/kg. Moreover, the “times more active than the racemate” value in data set [7] (rat, in vivo, po) was roughly 50 times. In data set [8], the “Action on the transit” value was “without acting on the transit”. Besides, the pIC50 in data set [2] is 7.75. The “Inhibition of diarrhoea (%)” value was 46.1% in data set [1] (dose 0.003 mg/kg p.o., mice, listed as compound of the invention, 0.003 mg/kg); 59.7% in data set [1] (dose 0.01 mg/kg p.o., mice); 59.5% in data set [1] (dose 0.03 mg/kg p.o., mice); 69.5% in data set [1] (dose 0.1 mg/kg p.o., mice). Moreover, the “times more active than acetorphan” value in data set [1] (oral route, mice, diarrhoea caused by LPS) was “more than 6000 times”.

Regarding `Clc1ccc(C=CCC2CCCCN2CC2CC2)cc1Cl` (racemic) [(+/−) parent racemate, racemic E-2-(3,4-dichlorocinnamyl)-1-cyclopropylmethylpiperidine], the ED50 in data set [3] amounted to 0.077 mg/kg; in data set [7], 1.9 mg/kg; in data set [1] it was 0.038 mg/kg; in data set [5], 0.058 mg/kg. This compound showed a pIC50 in data set [2] of 7.36.

On to `C(=C\c1ccccc1)/CC1CCCCN1CC1CC1` (single isomer, unassigned; (-)) [Ex. 2A.3, (−)E-2-cinnamyl-1-cyclopropylmethyl-piperidine], for which the “Inhibition of diarrhoea (%)” value in data set [1] (dose 0.00003 mg/kg p.o., mice, 3e-05 mg/kg) worked out at 45%; in data set [1] (dose 0.0001 mg/kg p.o., mice) it was 65.8%; in data set [1] (dose 0.001 mg/kg p.o., mice, 0.001 mg/kg) it was 36.8%.

For the compound `CN(C)C(=O)C(CCN1CCC(O)(c2ccc(Cl)cc2)CC1)(c1ccccc1)c1ccccc1` [loperamide], the ED50 amounted to 3.92 mg/kg in data set [3], 0.37 mg/kg in data set [1] and 4.27 mg/kg in data set [5].

As to `CC(=O)SCC(Cc1ccccc1)C(=O)NCC(=O)OCc1ccccc1` (stereo not drawn) [acetorphan], the 50% effective dose (ED50) in data set [1] was 34 mg/kg.
